From PMC10714399, “Open Source Antibiotics: Simple Diarylimidazoles Are Potent against Methicillin-Resistant Staphylococcus aureus” (ACS Infectious Diseases, 2023) come the findings set out here.

≈ marks a conversion by molar mass, not a printed value. Where “and” joins values, the source holds several entries; their conditions need not be identical. Identical values can stand only once. Like-named read-outs stand apart in the source and are kept apart here.

Data set [1] concerns Staphylococcus aureus NCTC 13373 (mecA-positive; methicillin-resistant). The data set is described as follows: In vitro antibacterial activity, MIC (UCL School of Pharmacy assay), MRSA. The class given is cell-based. Conditions: for MIC: Staphylococcus aureus. The method in brief:
(§1)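 Growth inhibition was read as MIC across a two-fold range of 32 down to 0.03 μg/mL in isosensitest broth. Bacteria from overnight plates were set to A600 0.1 in PBS, about 1 × 10^8 CFU/mL, and diluted 1:100 before inoculation.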

For data set [2], the system named is S. aureus ATCC 25923 (methicillin-susceptible). The data set is described as follows: In vitro antibacterial activity, MIC (UCL), MSSA. The class given is cell-based, Staphylococcus aureus. Conditions: for MIC: Staphylococcus aureus. The method in brief:
as §1

Data set [3] deals with Enterococcus faecalis ATCC 51299 (vanA-positive; vancomycin-resistant). The experiment in a line: In vitro antibacterial activity, MIC (UCL), VRE. The class given is cell-based. The method in brief: as §1
A further data set relates to VSE. The experiment in a line: In vitro antibacterial activity, MIC, VSE. Format: cell-based.
In data set [4] the test system is MRC-5SV2 (human lung fibroblast cell line). The data set is described as follows: Toxicity against MRC-5SV2. Format: cell-based. Here is the method: (§2) ADME and toxicity for compounds were measured according to procedures outlined in the manuscript submitted in parallel to this one;2 other procedures were used for those compounds analysed by Monash University (in vitro ADME) or UCL (toxicity), both described in the main

For data set [5], the system named is PMM (primary mouse macrophages). The data set is described as follows: Toxicity against PMM. Format: cell-based. Here is the method: as §2

As for `Fc1ccc(-c2c(-c3ccccn3)nc3ccccn23)cn1` [compound 986], the “activity against MRSA, in words” value in data set [1] was “inactive”. For the same compound, the MIC (in data set [1] (read-out: MRSA MIC); in data set [2] (read-out: MSSA MIC); in data set [3] (read-out: VRE MIC); with VSE (read-out: VSE MIC)) was more than 32 µg/mL in each case.

For the compound `Fc1ccc(Nc2c(-c3ccccn3)nc3ccccn23)cc1` [compound 987], the MIC in data set [1] (read-out: MRSA MIC) was determined as 8 µg/mL (≈ 26.3 µM); in data set [2] (read-out: MSSA MIC), 16 µg/mL (≈ 52.6 µM); in data set [3] (read-out: VRE MIC), 32 µg/mL (≈ 105 µM); in the data set with VSE (read-out: VSE MIC) it was 32 µg/mL (≈ 105 µM). The “MRC5 TC50” value in data set [4] worked out at 2.3 µg/mL. The “PMM TC50” value in data set [5] came to 9.7 µg/mL.

In the case of `Cc1ccc(Nc2c(-c3ccccn3)nc3ccccn23)cc1` [compound 988], the MIC in data set [1] (read-out: MRSA MIC) came out at 4 µg/mL (≈ 13.3 µM); in data set [2] (read-out: MSSA MIC), 4 µg/mL (≈ 13.3 µM); in data set [3] (read-out: VRE MIC), 16 µg/mL (≈ 53.3 µM); with VSE (read-out: VSE MIC) it was 16 µg/mL (≈ 53.3 µM).

On to `NC(=O)c1ccc(-n2c(-c3ccccn3)nc3ccccc32)cc1` [compound 989], for which the “MRSA MIC” value in data set [1] is > 32 µg/mL and 32 µg/mL. Besides, the “MSSA MIC” value in data set [2] is on record as more than 32 µg/mL. Besides, in data set [3], the “VRE MIC” value is more than 32 µg/mL. The “VSE MIC” value in the data set on VSE is listed as more than 32 µg/mL. In data set [4], the “MRC5 TC50” value was 20.1 µg/mL. Also, the “PMM TC50” value in data set [5] is listed as 20.1 µg/mL.

For the compound `N#Cc1ccc(-n2c(-c3ccccn3)nc3ccccc32)cc1` [compound 990], the “MRSA MIC” value in data set [1] is > 32 µg/mL and 32 µg/mL. Also, the “MSSA MIC” value in data set [2] is more than 32 µg/mL. Further, in data set [3], the “VRE MIC” value is on record as more than 32 µg/mL. In the data set with VSE, the “VSE MIC” value is reported as more than 32 µg/mL. In addition, the “MRC5 TC50” value in data set [4] was determined as 19.0 µg/mL. In addition, the “PMM TC50” value in data set [5] is 19.0 µg/mL.

`c1ccc(-c2nc3ccccc3n2-c2ccc3occc3c2)nc1` [compound 991]: the “MSSA MIC” value in data set [2] is more than 32 µg/mL. The “VRE MIC” value in data set [3] is reported as more than 32 µg/mL. In the data set with VSE, the “VSE MIC” value is reported as more than 32 µg/mL. For the same compound, the “MRC5 TC50” value in data set [4] amounted to 19.9 µg/mL. In addition, the “PMM TC50” value in data set [5] was 12.0 µg/mL.

Regarding `c1ccc(-n2c(-c3ccccn3)nc3ccccc32)cc1` [compound 992], the “MRSA MIC” value in data set [1] is > 32 µg/mL and 32 µg/mL. The “MSSA MIC” value in data set [2] was more than 32 µg/mL. Besides, the “VRE MIC” value in data set [3] was more than 32 µg/mL. For the same compound, the “VSE MIC” value in the data set with VSE was more than 32 µg/mL. Besides, the “MRC5 TC50” value in data set [4] was found to be 17.4 µg/mL. Further, in data set [5], the “PMM TC50” value is 17.4 µg/mL.

As to `c1ccc(Cn2c(-c3ccccn3)nc3ccccc32)cc1` [compound 993], the “MRSA MIC” value in data set [1] is > 32 µg/mL and 32 µg/mL. Also, the “MSSA MIC” value in data set [2] is more than 32 µg/mL. In data set [3], the “VRE MIC” value is more than 32 µg/mL. Further, the “VSE MIC” value in the data set on VSE was more than 32 µg/mL. For the same compound, in data set [4], the “MRC5 TC50” value came out at 18.3 µg/mL. Further, the “PMM TC50” value in data set [5] is 18.3 µg/mL.

`c1ccc(-c2nc3ccccc3n2-c2ccc(N3CCCCC3)cc2)nc1` [compound 994]: the “MRSA MIC” value in data set [1] worked out at 16 µg/mL. In addition, in data set [2], the “MSSA MIC” value turned out to be 32 µg/mL. In addition, the “VRE MIC” value in data set [3] worked out at 32 µg/mL. For the same compound, the “VSE MIC” value in the data set with VSE worked out at 32 µg/mL. Also, the “MRC5 TC50” value in data set [4] is 7.0 µg/mL. Besides, the “PMM TC50” value in data set [5] is on record as 5.4 µg/mL.

As for `c1ccc(-c2nc3ccccc3n2-c2ccc(N3CCOCC3)cc2)nc1` [compound 995], the “MRSA MIC” value in data set [1] was > 32 µg/mL and 32 µg/mL. In data set [2], the “MSSA MIC” value is given as more than 32 µg/mL. For the same compound, in data set [3], the “VRE MIC” value is recorded as more than 32 µg/mL. Also, the “VSE MIC” value in the data set on VSE is on record as more than 32 µg/mL. The “MRC5 TC50” value in data set [4] is listed as 22.8 µg/mL. In data set [5], the “PMM TC50” value turned out to be 22.8 µg/mL.

As to `OC1CCn2c1nc(-c1ccccn1)c2-c1ccc2occc2c1` (centres unmarked) [compound 997], the “activity against MRSA, in words” value in data set [1] is “inactive”. Further, the minimum inhibitory concentration (MIC) was more than 32 µg/mL in data set [1] (16 h, read-out: MRSA MIC); more than 32 µg/mL in data set [1] (UCL, read-out: MRSA MIC (UCL)); more than 32 µg/mL in data set [1] (read-out: MRSA MIC); more than 32 µg/mL in data set [2] (read-out: MSSA MIC); more than 32 µg/mL in data set [2] (read-out: MSSA MIC (UCL)); more than 32 µg/mL in data set [3] (read-out: VRE MIC). Moreover, the MIC (in data set [3] (read-out: VRE MIC (UCL)); in the data set on VSE (read-out: VSE MIC); in the data set with VSE (read-out: VSE MIC (UCL))) was more than 32 µg/mL in each case.

As for `COc1ccc2nc(-c3ccccn3)c(N(C)c3cc(F)cc(F)c3)n2c1` [compound 998], the “MRSA MIC” value in data set [1] was 8 µg/mL. The “MSSA MIC” value in data set [2] turned out to be 8 µg/mL. The “VRE MIC” value in data set [3] is on record as 32 µg/mL. Besides, the “VSE MIC” value in the data set with VSE amounted to 16 µg/mL.

`COc1ccnc(-c2nc3cc(OC)ccn3c2N(C)c2ccc(F)cc2)c1` [compound 1000]: the “MRSA MIC” value in data set [1] worked out at 2 µg/mL. In data set [2], the “MSSA MIC” value stood at 8 µg/mL. For the same compound, the “VRE MIC” value in data set [3] was 8 µg/mL. For the same compound, in the data set with VSE, the “VSE MIC” value is 8 µg/mL.

In general, MIC refers to the smallest concentration in the dilution series that meets the test's criterion for growth inhibition.
